What was measured:
[1] = system: diethyl nitrosamine (DEN) cirrhotic rat model of liver fibrosis; assay: DEN induced cirrhosis in rats, study 1: Sirius red quantification of liver fibrosis; type: in vivo; conditions: group 2: Sorafenib 10 mg/kg/day p.o. q.d., 6 weeks after 14 weeks DEN
Source text: This animal model allows developing an extensive liver fibrosis, leading to a compensated liver cirrhosis with a multifocal hepatocarcinoma (HCC) after 14 weeks of induction (Schiffer, E. et al. Hepatology 2005 (41), 307-314). The DEN cirrhotic rat animal model was used here as a specific animal model of liver fibrosis.
Forty two Fisher 344 male rat (obtained from Charles River Laboratories France, including spare animals), weighting approximately 280 g at the start of the study, were randomized in 5 groups of 8 (groups 1, 2, 3 and 5) or 6 (group 4) animals and housed with 3 animals per cage, given free access to food and water and allowed to acclimate for at least 5 days prior to test initiation.
The DEN cirrhotic rat model was obtained after 14 weekly intraperitoneal injections of DEN (intra-peritoneal injections (i.p.) of DEN at 50 mg/kg/week). The animals were then treated according to Table 9 during 6 weeks. In this in vivo experiment, the anti-fibrotic activity of compound 2-3 was evaluated in liver fibrosis animal model, alone or in combination with Sorafenib (a multikinase inhibitor of Raf-1, B-Raf, VEGFR-2, VEGFR3, PDGFRβ, Flt3 and c-Kit). After 6 weeks of treatment, all animals were sacrificed using CO2 and rat livers were collected for analysis. The quantification of the liver fibrotic tissue was evaluated by Sirius red staining of rat liver sections.
Group 1 contained 8 animals which were daily dosed (q.d.) by oral gavage (per os, p.o.) with the vehicle during 6 weeks.
Group 2 contained 8 animals which were daily dosed (q.d.) by oral gavage (per os, p.o.) with Sorafenib at 10 mg/kg/day during 6 weeks.
Group 3 contained 8 animals which were daily dosed (q.d.) by oral gavage (per os, p.o.) with compound 2-3 at 15 mg/kg/day during 6 weeks.
Group 4 contained 6 animals which were daily dosed (q.d.) by oral gavage (per os, p.o.) with compound 2-3 at 15 mg/kg/day in combination with Sorafenib at 10 mg/kg/day during 6 weeks.
Group 5 contained 8 animals which were daily dosed (q.d.) by oral gavage (per os, p.o.) with compound 2-3 at 30 mg/kg/day during 6 weeks. […]

cathepsin B (CTSB) = molecular target: T1, cathepsin B (CTSB) (Homo sapiens, UniProt P07858); assay: Cathepsin B (CTSB) catalytic activity in lysates of treated HepG2 cells (Z-RR-AMC substrate); type: cell-based; conditions: HepG2; 7.5 μM, 6 hours and 24 hours
T1 construct: endogenous in cells; host or cells: HepG2
Description: (§1) Lysosomal functions was investigated in a hepatocellular carcinoma (HCC) cell line HepG2 after 6 hours and 24 hours of treatment with compound 2-3 (the hydrochloride salt form of compound 2-2) using functional assays of some lysosomal enzymes activity: two cysteine proteinases: cathepsin B (CTSB) and cathepsin L (CTSL), and one aspartic proteinase: cathepsin D (CTSD). Two sets of three concentrations of compound 2-3 (1 μM, 2 μM, and 4 μM for 6 hours, and 0.5 μM, 1 μM and 2 μM for 24 hours) were tested at least in triplicate and four independent experiments were performed. Salinomycin (7.5 μM for 6 hours and 24 hours) was used as a positive control.
(§2) The HepG2 cell line was maintained in DMEM (Dulbecco's Modified Eagle Media) high glucose (Cat #L0103-500, Dutscher) containing 1% penicillin-streptomycin (Cat #P06-07100, Dutscher) and 10% FBS (Fetal Bovine Serum) (Cat #11543407, Life Technologies). Cells were cultured at 37° C. with 5% CO2.
(§3) The day before the experiment, 6-well plates (Cat #353046, Dutscher) with 250,000 cells in 2.7 mL of medium per well were prepared.
(§4) Compound 2-3 was dissolved with filtrated H2O mQ to make a 10 mM stock solution and serial working solutions (10× solutions) were prepared with the diluent (=culture medium with 0.4% H2O mQ) at 5 μM, 10 μM, 20 μM and 40 μM: the “dilution 1” is made from the 10 mM stock solution in the culture medium and the following serial dilutions were made in the diluent to maintain a constant percentage of H2O.
(§5) Salinomycin [CAS 53003-10-4] was used as positive control and was dissolved with methanol to make a 10 mM stock solution and a 10× solution at 75 μM was prepared with the culture medium.
(§6) 300 μL of compound 2-3 10× solutions (solutions at 10 μM, 20 μM and 40 μM for 6 hours of treatment and solutions at 5 μM, 10 μM and 20 μM for 24 hours of treatment) or 300 μL of diluent (=non-treated (NT) condition) or 300 μL of Salinomycin 10× solution were dispensed in the appropriate wells (4 wells/condition). After cells treatment, 6-well plates were returned to incubator for 6 hours or 24 hours.
(§7) After 6 hours or 24 hours of cells treatment, the medium was removed from each well. The cells were carefully rinsed with PBS (phosphate-buffered saline, Cat #L0615-500, Dutscher) and detached with 500 μL per well of a trypsin solution. After 5 min of trypsin (Cat #L0930-100, Dutscher) incubation at 37° C., 800 μL of medium was added per well and transferred to a 1.5 mL tube. Then, 800 μL of PBS was used to rinse each well and the corresponding solution was pooled in each corresponding 1.5 mL tube. […] Total protein concentration was assessed using the Bradford reagent (Cat #B6916-500ML, Sigma-Aldrich) and cellular lysates were stored at −80° C. until catalytic activity measurement. […]

[2] = system: cathepsins B and L (CTSB/L); assay: Overall cathepsins B and L (CTSB/L) peptidase activity in lysates of treated HepG2 cells (Z-FR-AMC substrate); type: cell-based; conditions: HepG2; 7.5 μM, 6 hours and 24 hours
Description: as §1, §2, §3, §4, §5, §6, §7

cathepsin D (CTSD) = molecular target: T2, cathepsin D (CTSD) (Homo sapiens, UniProt P07339); assay: Cathepsin D (CTSD) peptidase activity in lysates of treated HepG2 cells (MOCAc quenched fluorogenic substrate); type: cell-based; conditions: HepG2; 7.5 μM, 6 hours and 24 hours
T2 construct: cell lysates (1 μg of total proteins) were pre-incubated with citrate buffer pH 4.0; endogenous in cells; host or cells: HepG2
Description: as §1, §2, §3, §4
Salinomycin [CAS 53003-10-4] was used as positive control and was dissolved with methanol to make a 10 mM stock solution and a 10× solution at 75 μM was prepared with the culture medium. […]
After 6 hours or 24 hours of cells treatment, the medium was removed from each well. […] Total protein concentration was assessed using the Bradford reagent (Cat #B6916-500ML, Sigma-Aldrich) and cellular lysates were stored at −80° C. until catalytic activity measurement. […]

[3] = system: diethyl nitrosamine (DEN) cirrhotic rat model of liver fibrosis; assay: DEN induced cirrhosis in rats, study 2: Sirius red quantification of liver fibrosis; type: in vivo; conditions: group 4 (20/15): 20 mg/kg/day p.o. 4 weeks then 15 mg/kg/day 3 weeks; p=0.03
Description: A second in vivo experiment, with the same diethyl nitrosamine (DEN) cirrhotic rat animal model of liver fibrosis, was performed including compound 2-2 (base form of compound 2-3) with discontinued oral dosing schedule and compound 5-3 with daily oral exposure. Compounds 2-2 and 5-3 were administered p.o. by gavage (oral gavage) once daily during 7 weeks.
Rats were treated with DEN for 13 weeks (intra-peritoneal injections (i.p.) of 50 mg/kg/week) and then treated according to the Table 10 dosage schedule during 7 weeks. At the end of the study, all animals were sacrificed using CO2 and rat livers were collected for analysis. The quantification of the liver fibrotic tissue was evaluated by Sirius red staining of rat liver sections.
Group 1 contained 6 animals which were daily dosed (q.d.) by oral gavage (per os, p.o.) with the vehicle during 7 weeks.
Group 2 contained 8 animals and the corresponding animals were daily dosed (q.d.) by oral gavage (per os, p.o.) with compound 2-2 during 4 weeks at 20 mg/kg/day and then during 3 weeks at 20 mg/kg every 2 days (q.o.d.: quaque altera die, one day treated, on day untreated).
Group 3 contained 8 animals and the corresponding animals were daily dosed (q.d.) by oral gavage (per os, p.o.) with compound 2-2 during 3 weeks at 20 mg/kg/day, then 2 weeks of treatment free period, and were then daily dosed (q.d.) by oral gavage (per os, p.o.) with compound 2-2 during 2 weeks at 20 mg/kg/day.
Group 4 contained 8 animals and the corresponding animals were daily dosed (q.d.) by oral gavage (per os, p.o.) with compound 5-3 during 4 weeks at 20 mg/kg/day, and were then daily dosed (q.d.) by oral gavage (per os, p.o.) with compound 5-3 during 3 weeks at 15 mg/kg/day.
Compound 2-2 and 5-3 were formulated in water for injection acidified with hydrochloric acid to pH 4.

T2 sequence (P07339 65-412): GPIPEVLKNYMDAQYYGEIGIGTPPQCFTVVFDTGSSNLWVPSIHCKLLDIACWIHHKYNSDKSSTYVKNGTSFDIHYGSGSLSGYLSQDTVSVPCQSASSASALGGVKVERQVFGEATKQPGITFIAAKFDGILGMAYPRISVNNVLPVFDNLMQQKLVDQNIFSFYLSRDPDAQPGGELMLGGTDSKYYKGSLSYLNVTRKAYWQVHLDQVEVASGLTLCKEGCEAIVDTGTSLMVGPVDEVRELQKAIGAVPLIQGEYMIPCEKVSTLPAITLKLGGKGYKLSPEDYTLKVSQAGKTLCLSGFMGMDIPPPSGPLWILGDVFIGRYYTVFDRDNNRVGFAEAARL

## CNC(=O)c1cc(Oc2ccc(NC(=O)Nc3ccc(Cl)c(C(F)(F)F)c3)cc2)ccn1 [Sorafenib, reference compound]
[1]
  reduction of the level of collagen fibers deposition (Sirius red) compared to the control group: 13.6%

## CC[C@@H](C(=O)[C@@H](C)[C@@H](O)[C@H](C)[C@@H]1O[C@@H]([C@@H](CC)C(=O)O)CC[C@@H]1C)[C@H]1O[C@]2(C=C[C@@H](O)[C@]3(CC[C@@](C)([C@H]4CC[C@](O)(CC)[C@H](C)O4)O3)O2)[C@H](C)C[C@@H]1C [Salynomycin, Salinomycin, reference compound]
Cathepsin B (CTSB)
  proteolytic activity of cathepsin B (positive control): significantly decreased
[2]
  proteolytic activity of cathepsins B/L (positive control): significantly decreased
Cathepsin D (CTSD)
  proteolytic activity of cathepsin D (positive control): significantly decreased

## CC(C)(C)NC1CCN(c2cc(NCc3ccc(F)cc3)nc3ccccc23)CC1 [5-3, 2-(4-fluorobenzylamino)-4-(4-tert-butylaminopiperidin-1-yl)-quinoline]
[3]
  reduction of the level of collagen fibers deposition (Sirius red) compared to the control group: 24%

Source: patent US11261189B2, “Substituted 2,4 diamino-quinoline as new medicament for fibrosis, autophagy and cathepsins B (CTSB), L (CTSL) and D (CTSD) related diseases” (Genoscience Pharma, priority 2018, dated 2022)
